Results taken from US10987357B2, “Aerosolized fluoroquinolones and uses thereof” (Horizon Orphan, LLC, priority 2005, dated 2021).
Like-named read-outs stand apart in the source and are kept apart here.

Legend:
elastase = settings: cited from earlier work
physchem = settings: for Initial Solution pH / Initial Solution Appearance: 10 mg/mL in sterile water; for Initial Solution Appearance: room temperature; for After pH Adjustment Appearance / After pH Adjustment pH / pH of final solution: 10 mg/mL; for After pH Adjustment Appearance / After pH Adjustment pH: titrated with 1N HCl; for solubility at 10 min: aqueous buffer, thermodynamic from solid; for solubility on titration with 1N HCl: pH 1.5
Procedure: A 2 to 20 mg sample of each antibiotic was weighed into sterile plastic tubes and brought up with a volume of sterile water to make a 10 mg/mL solution or suspension of the antibiotic. Samples were incubated for approximately 10 minutes at room temperature with occasional mixing, prior to further handling.
The insoluble solutions were titrated with 1N HCl to the point of visible solubility, and the pH of the solubilized solution determined.
After the pH adjustment, and following a further 10 minute incubation period with occasional mixing, the final appearance of the solutions was determined, just prior to the aerosol tolerability and taste test.

[1] = in vivo
Procedure: In the second test, the tolerability and taste of a small aerosol sample from a 0.5 ml aliquot of the test formulation was determined in a single healthy human volunteer, following nebulization in a PARI eFlow nebulizer (Table 12).
The tolerability and taste of the drug during a very brief administration period and for a period of 10 minutes post administration were monitored. Tolerability parameters were of the following types: (i) cough, cough sensation, or sneezing (ii) irritation, burning or tightness of throat, (ii) irritation or runniness in nasal passages or eyes, (iii) irritation, burning or tightness of the lungs or shortness of breadth, and (iv) dizziness, headache, nausea or other systemic effects.

[2] = Rat pharmacokinetic model (IV vs microspray aerosol, intratracheal); type: in vivo, rats; settings: for AUC: epithelial lining fluid (ELF)
Procedure: […] Blood samples are taken at various times over 3 hours to determine the plasma pharmacokinetic parameters. […] The plasma and tissue concentrations are determined by an HPLC method and the data are then fit using WinNonlin.

[3] = system: Streptococcus pneumonia (Sp); settings: Table 6; cited from earlier work
MSSA = settings: Table 6; cited from earlier work
[4] = system: methicillin resistant Staphylococcus aureus (MRSA); settings: cited from earlier work; for MRSA MIC90: Table 6
[5] = system: Pseudomonas aeruginosa (Pa); settings: cited from earlier work; for Pa MIC90: Table 6
[6] = system: P. aeruginosa strain PAM 1723; assay: Mouse lung infection efficacy model; settings: Pseudomonas aeruginosa, PAM1723, in Mus musculus
Procedure: The inoculum is adjusted to ca. 5×10^6 CFU/ml by correlation of absorbance at 600 nm with predetermined plate counts. […] On day 5, mice are infected by an intratracheal instillation of 0.05 ml of inoculum while under isoflurane anesthesia (5% isoflurane in oxygen running at 4 L/min). […] Mice are sacrificed 1 and 4 hours after treatment, their lungs removed, homogenized and plated to determine colony counts.

Dissolution rate studies = settings: 37° C.
[7] = rat, inhaled or intranasal, IT, 10 mg/kg
[8] = 1 h, read-out: DeltaLOG CPU 1 hr, route IT, dose 25 mg/kg, 1 hr post-drug administration
[9] = 4 h, read-out: DeltaLOG CPU 4 hr, route IT, dose 25 mg/kg, 4 hr post-drug administration
[10] = ip, 1 h, read-out: DeltaLOG CPU 1 hr, route IP, dose 25 mg/kg, 1 hr post-drug administration
[11] = ip, 4 h, read-out: DeltaLOG CPU 4 hr, route IP, dose 25 mg/kg, 4 hr post-drug administration
[12] = 2-10 minutes, 500 ml pH 7.4 Tris buffer, paddles 100 rpm
[13] = 10-30 minutes, pH 7.4 Tris buffer

O=C(O)CCCC[C@@H](S)CCS (racemic) [DHLA, dihydrolipoic acid]
effect on elastase activity after treatment of CF sputum (elastase): did not increase elastase activity

COc1c(N2CCNC(C)C2)c(F)cc2c(=O)c(C(=O)O)cn(C3CC3)c12 (centres unmarked) [Gatifloxacin]
Initial Solution pH (physchem): 7.0
Initial Solution Appearance (physchem): white, cloudy, visible
After pH Adjustment Appearance (physchem): slight yellow color,
After pH Adjustment pH (physchem): 3.0
solubility at 10 min (physchem): > 10000 µg/mL
pH of final solution (physchem): 3.0
Aerosol Tolerability and Taste [1]: moderate bitter unpleasant taste,
cough on aerosol exposure [1]: associated with cough
F, % from Lung vs. IV ([2]; IT, 10 mg/kg): 100%
AUC [2, 7]: 54700 ng·h/mL
AUC ([2]; rat, iv, 10 mg/kg): 5320 ng·h/mL
SP MIC90 [3]: 0.5 µg/mL
MSSA MIC90 (MSSA): 0.125 µg/mL
MRSA MIC90 [4]: 4 µg/mL
Pa MIC90 [5]: 16 µg/mL
rank of potency against Pa [5]: most potent
log reduction at 25 mg/kg [6, 8]: 1.48
log reduction at 25 mg/kg [6, 9]: 2.11
log reduction at 25 mg/kg [6, 10]: 0.34
log reduction at 25 mg/kg [6, 11]: 0.02

CO/N=C1\CN(c2nc3c(cc2F)c(=O)c(C(=O)O)cn3C2CC2)CC1CN (centres unmarked) [Gemifloxacin]
Initial Solution pH (physchem): 4.7
Initial Solution Appearance (physchem): colorless, transparent, no
solubility at 10 min (physchem): > 10000 µg/mL
Aerosol Tolerability and Taste [1]: strong unpleasant bitter taste, strong
F, % from Lung vs. IV ([2]; IT, 10 mg/kg): 86%
AUC [2, 7]: 536000 ng·h/mL
AUC ([2]; rat, iv, 8 mg/kg): 3720 ng·h/mL
half-life ([2]; rat, serum, iv, 8 mg/kg, read-out: Serum t1/2 (converted)): 1.04 h
SP MIC90 [3]: 0.06 µg/mL
MSSA MIC90 (MSSA): 0.06 µg/mL
MRSA MIC90 [4]: 2 µg/mL
rank of potency against MRSA [4]: most potent
Pa MIC90 [5]: 8 µg/mL
rank of potency against Pa [5]: most potent
log reduction at 25 mg/kg [6, 8]: 3.2
log reduction at 25 mg/kg [6, 9]: 2.28

CCn1cc(C(=O)O)c(=O)c2cc(F)c(N3CCNC(C)C3)c(F)c21 (centres unmarked) [Lomefloxacin]
Initial Solution pH (physchem): 4.2
Initial Solution Appearance (physchem): cloudy, visible sediment
After pH Adjustment Appearance (physchem): transparent, no sediment,
solubility at 10 min (physchem): > 10000 µg/mL
pH of final solution (physchem): 4.2
Aerosol Tolerability and Taste [1]: chemical taste, somewhat bitter,
SP MIC90 [3]: 16 µg/mL
MSSA MIC90 (MSSA): 2 µg/mL
MRSA MIC90 [4]: >32 µg/mL
Pa MIC90 [5]: 32 µg/mL

C[C@@H]1CN(c2c(F)c(F)c3c(=O)c(C(=O)O)cn(C4CC4)c3c2F)C[C@H](C)N1 [Orbifloxacin]
Initial Solution Appearance (physchem): white, cloudy, visible
After pH Adjustment Appearance (physchem): colorless, transparent, no
After pH Adjustment pH (physchem): 1.7
solubility at 10 min (physchem): > 10000 µg/mL
pH of final solution (physchem): 1.7
Aerosol Tolerability and Taste [1]: very acidic, strong bitter unpleasant
cough on aerosol exposure [1]: associated with cough
SP MIC90 [3]: 2 µg/mL
MSSA MIC90 (MSSA): 2 µg/mL
Pa MIC90 [5]: >32 µg/mL

C[C@@H]1CN(c2c(F)c(N)c3c(=O)c(C(=O)O)cn(C4CC4)c3c2F)C[C@H](C)N1 [Sparfloxacin]
Initial Solution pH (physchem): 5.0
Initial Solution Appearance (physchem): bright yellow, turbid, visible
After pH Adjustment Appearance (physchem): bright yellow, densely
After pH Adjustment pH (physchem): 1.5
pH of final solution (physchem): 1.5
solubility on titration with 1N HCl (physchem): solubility was not reached by pH 1.5
SP MIC90 [3]: 0.5 µg/mL
MSSA MIC90 (MSSA): 0.125 µg/mL
MRSA MIC90 [4]: 16 µg/mL
Pa MIC90 [5]: 32 µg/mL
log reduction at 25 mg/kg [6, 8]: 1.56
log reduction at 25 mg/kg [6, 9]: 0.81
log reduction at 25 mg/kg [6, 10]: 0.85
log reduction at 25 mg/kg [6, 11]: -0.09

NC1CCN(c2nc3c(cc2F)c(=O)c(C(=O)O)cn3-c2ccc(F)cc2F)C1 (centres unmarked) [Tosufloxacin]
Initial Solution pH (physchem): 3.5
Initial Solution Appearance (physchem): white, turbid, visible
After pH Adjustment Appearance (physchem): white, cloudy, less turbid,
After pH Adjustment pH (physchem): 1.5
pH of final solution (physchem): 1.5
solubility on titration with 1N HCl (physchem): solubility was not reached by pH 1.5
SP MIC90 [3]: 0.5 µg/mL
MSSA MIC90 (MSSA): 0.125 µg/mL
MRSA MIC90 [4]: >16 µg/mL
Pa MIC90 [5]: 16 µg/mL
log reduction at 25 mg/kg [6, 8]: 0.48
log reduction at 25 mg/kg [6, 9]: 0.24
log reduction at 25 mg/kg [6, 10]: 0
log reduction at 25 mg/kg [6, 11]: -1.33

N[C@@H]1[C@H]2CN(c3nc4c(cc3F)c(=O)c(C(=O)O)cn4-c3ccc(F)cc3F)C[C@@H]12 [Trovafloxacin]
Initial Solution pH (physchem): 4.2
Initial Solution Appearance (physchem): colorless, slightly cloudy, no
solubility at 10 min (physchem): > 10000 µg/mL
pH of final solution (physchem): 4.2
SP MIC90 [3]: 0.25 µg/mL
MSSA MIC90 (MSSA): 0.06 µg/mL
MRSA MIC90 [4]: 8 µg/mL
Pa MIC90 [5]: >32 µg/mL

C[C@H]1COc2c(N3CCN(C)CC3)c(F)cc3c(=O)c(C(=O)O)cn1c23.O=C(O)c1cc2ccccc2c(Cc2c(O)c(C(=O)O)cc3ccccc23)c1O [levofloxacin pamoate]
dissolution rate (Dissolution rate studies; [12]): approximately 0.146 mg/min
dissolution rate (Dissolution rate studies; 10-60 minutes, pH 7.4 Tris buffer): 0.0331 mg/min

CCCCCCCCCCCCCCCCCC(=O)O.C[C@H]1COc2c(N3CCN(C)CC3)c(F)cc3c(=O)c(C(=O)O)cn1c23 [levofloxacin stearate]
dissolution rate (Dissolution rate studies; [12]): 0.499 mg/min
dissolution rate (Dissolution rate studies; [13]): 0.161 mg/min

C[C@H]1COc2c(N3CCN(C)CC3)c(F)cc3c(=O)c(C(=O)O)cn1c23.O=C(O)c1ccc2ccccc2c1O [levofloxacin xinafoate]
dissolution rate (Dissolution rate studies; [12]): approximately 1.24 mg/min
dissolution rate (Dissolution rate studies; [13]): 0.28 mg/min

DNase
increase of sol elastase activity after treatment of CF sputum (elastase): 190%

B1: reduced rhTrx: stable reduced form of recombinant human thioredoxin (protein, UniProt P10599 2-105, looked up)
Thioredoxin: VKQIESKTAFQEALDAAGDKLVVVDFSATWCGPCKMIKPFFHSLSEKYSNVIFLEVDVDDCQDVASECEVKCMPTFQFFKKGQKVGEFSGANKEKLEATINELV
modifications: reduced form
increase of sol elastase activity after treatment of CF sputum (elastase): 60%
